# Measurements: patent US6855829B2, “3-fluoro-2-oxindole modulators of KCNQ potassium channels and use thereof in treating migraine and mechanistically related disease” (Bristol-Myers Squibb Company, priority 2001, dated 2005)
# “Also recorded” adds a separate entry of the source. Read-outs that look alike come from different tables or passages of the source.
# How the values were obtained:
# human KCNQ5 (hKCNQ5) = human KCNQ5 (hKCNQ5) (Homo sapiens, UniProt Q9NR82); experiment: Two-electrode voltage clamp, Xenopus oocyte-expressed hKCNQ5-mediated outward currents; assay type: cell-based; conditions: Xenopus oocytes, n=3, single concentration (10 or 20 μM)
# Sequence of human KCNQ5 (hKCNQ5) (Q9NR82 whole entry): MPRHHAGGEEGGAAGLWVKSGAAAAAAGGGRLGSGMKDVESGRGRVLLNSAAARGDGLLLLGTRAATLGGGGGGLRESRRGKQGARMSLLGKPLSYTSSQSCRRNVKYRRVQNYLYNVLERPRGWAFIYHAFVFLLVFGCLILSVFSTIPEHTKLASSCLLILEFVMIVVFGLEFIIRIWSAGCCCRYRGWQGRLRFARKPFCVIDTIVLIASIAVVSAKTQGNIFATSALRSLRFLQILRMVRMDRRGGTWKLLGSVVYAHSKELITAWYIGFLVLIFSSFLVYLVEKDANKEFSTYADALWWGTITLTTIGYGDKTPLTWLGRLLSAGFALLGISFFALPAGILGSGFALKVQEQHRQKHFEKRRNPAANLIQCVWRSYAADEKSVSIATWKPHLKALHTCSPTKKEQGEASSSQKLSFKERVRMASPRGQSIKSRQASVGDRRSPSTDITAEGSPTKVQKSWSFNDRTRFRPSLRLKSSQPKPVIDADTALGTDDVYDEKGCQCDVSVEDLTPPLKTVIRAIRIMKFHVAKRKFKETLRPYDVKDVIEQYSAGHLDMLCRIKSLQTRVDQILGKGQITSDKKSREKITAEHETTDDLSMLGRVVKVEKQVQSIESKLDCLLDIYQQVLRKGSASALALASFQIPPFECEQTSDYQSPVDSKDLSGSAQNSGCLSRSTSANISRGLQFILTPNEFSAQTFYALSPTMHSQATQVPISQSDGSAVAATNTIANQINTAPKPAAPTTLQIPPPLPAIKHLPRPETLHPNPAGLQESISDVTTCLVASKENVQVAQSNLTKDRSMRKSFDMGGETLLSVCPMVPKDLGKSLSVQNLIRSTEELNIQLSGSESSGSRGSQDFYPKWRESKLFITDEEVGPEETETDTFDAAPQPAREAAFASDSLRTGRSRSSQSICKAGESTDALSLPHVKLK
# Protocol: (§1) The ability of the compounds described herein to open KCNQ channels and increase whole-cell outward (K^+) KCNQ-mediated currents was assessed under voltage-clamp conditions by determining their ability to increase cloned […] KCNQ2 (mKCNQ2)-mediated, heteromultimeric murine KCNQ2/3 (mKCNQ2/3)-mediated, and heterologous human KCNQ5 (hKCNQ5)-mediated outward currents expressed in Xenopus oocytes. Oocytes were prepared and injected using standard techniques; each oocyte was injected with approximately 50 nl of mKCNQ2, or hKCNQ5 cRNA. In the case of mKCNQ2/3 heteromultimeric channel expression, equal amounts (25-50 nL) of each cRNA were co-injected.
# (§2) Following injection, oocytes were maintained at 17° C. in ND96 medium containing (in mM): NaCl, 90; KCl, 1.0; CaCl2, 1.0; MgCl2, 1.0; HEPES, 5.0; pH 7.5. Horse serum (5%) and penicillin/streptomycin (5%) were added to the incubation medium. Recording commenced 2-6 days following mRNA injection. […]
# (§3) Frog (Xenopus laevis) oocytes were impaled with electrodes (1-2 MΩ) and standard 2-electrode voltage clamp techniques were employed to record whole-cell membrane currents. […] Compounds were evaluated at a single concentration (10 or 20 μM), and the effect of the selected compounds of Formula I on KCNQ2 current was expressed as the percent of control current. […]
# [1] = test system: cortical spreading depression; experiment: Cortical spreading depression elicited by KCl application; assay type: in vivo; conditions: rat, 0.1, 1.0, 5.0, 10.0 and 30.0 mg/kg i.v. vs vehicle (overall ANOVA p<0.001)
# Protocol: (§4) Male Long-Evans rats (Harlan, 250-400 g) were used in the experiments described in this example. Prior to testing, rats were allowed access to food and water ad libitum and were maintained on a 12:12 hours light/dark cycle. Rats were group housed in an Association for Assessment and Accreditation of Laboratory Animal Care (A.A.A.L.A.C.) accredited facility and cared for in strict compliance with all applicable regulations.
# Rats were anesthetized with urethane anesthesia (1.2 g/kg i.p.), implanted with a jugular vein catheter for drug injections, and placed in a stereotaxic frame. The skull was exposed and a small hole (approximately 2 mm by 3 mm) was drilled in the skull rostral to the lambdoid suture using a microdrill and steel burr creating a “well”. The dura was disrupted and a drop of mineral oil was placed in this well. Crystalline KCl was later applied to the well for 10 minutes to elicit spreading depression. Typically, this application produced a long-lasting series of spreading depressions.
# Two additional holes were placed in the skull unilaterally at 4 and 8 mm rostral to the application hole. Silver wire electrodes were placed in these latter holes and secured to the skull using acrylic cement. […]
# Differences between control and drug conditions were assessed using analyses of variance (ANOVA) and appropriate post-hoc analyses. […]
# [2] = test system: SSS-stimulated field responses recorded in the trigeminal nucleus caudalis; experiment: SSS-stimulated trigeminal field response (in vivo model of migraine); set-up: species or system rat
# Protocol: as §4
# SSS stimulation and recording were performed in a manner consistent with previously published methods using cat (K. L. Hoskin et al., 1996, Brain, 119:101-108) and rat (M. J. Cumberbatch et al., 1998, Eur. J. Pharmacol., 362:43-46; and M. J. Cumberbatch et al., 1999, Br. J. Pharmacol., 126:1478-1486) animal models. Rats were anesthetized with 1.2 g/kg i.p. urethane (#U-2500, Sigma Chemical Company, St. Louis, Mo.) and given supplemental urethane as needed. In the case of intravenous (i.v.) drug administration (e.g., (+)-3-[5-Chloro-2-[(2,2,2-trifluoroethoxy)phenyl]-1,3-dihydro-3-fluoro-6-(trifluoromethyl)-2H-indol-2-one), the jugular veins of the rats were cannulated using sylastic tubing pre-filled with vehicle. […]
# Stimulated field responses were recorded in the trigeminal nucleus caudalis using Teflon coated stainless-steel microelectrodes (5 MΩ impedance, Frederick Haer, Brunswick, Me.) and amplified and filtered (0.1 Hz-10 kHz) using a differential amplifier (#IsoDAM8, World Precision Instruments, Sarasota, Fla.). […]
# Three baseline measures (i.e., 100% of control), each consisting of 100 evoked trigeminal field potentials, were sampled prior to drug injection. […] Following injection of test substances, data were sampled for 1 hour, averaged into 5 minute bins (90 evoked potentials) and expressed as a percent change from average baseline values for the purposes of statistical analysis. Data were analyzed using repeated measures analyses of variance comparing vehicle and drug effects. […]
# murine KCNQ2 (mKCNQ2) = murine KCNQ2 (mKCNQ2) (Mus musculus, UniProt Q9Z351); experiment: Two-electrode voltage clamp, Xenopus oocyte expressed mKCNQ2-mediated outward currents; assay type: cell-based; conditions: 10 μM, Xenopus oocytes
# Sequence of murine KCNQ2 (mKCNQ2) (Q9Z351 whole entry): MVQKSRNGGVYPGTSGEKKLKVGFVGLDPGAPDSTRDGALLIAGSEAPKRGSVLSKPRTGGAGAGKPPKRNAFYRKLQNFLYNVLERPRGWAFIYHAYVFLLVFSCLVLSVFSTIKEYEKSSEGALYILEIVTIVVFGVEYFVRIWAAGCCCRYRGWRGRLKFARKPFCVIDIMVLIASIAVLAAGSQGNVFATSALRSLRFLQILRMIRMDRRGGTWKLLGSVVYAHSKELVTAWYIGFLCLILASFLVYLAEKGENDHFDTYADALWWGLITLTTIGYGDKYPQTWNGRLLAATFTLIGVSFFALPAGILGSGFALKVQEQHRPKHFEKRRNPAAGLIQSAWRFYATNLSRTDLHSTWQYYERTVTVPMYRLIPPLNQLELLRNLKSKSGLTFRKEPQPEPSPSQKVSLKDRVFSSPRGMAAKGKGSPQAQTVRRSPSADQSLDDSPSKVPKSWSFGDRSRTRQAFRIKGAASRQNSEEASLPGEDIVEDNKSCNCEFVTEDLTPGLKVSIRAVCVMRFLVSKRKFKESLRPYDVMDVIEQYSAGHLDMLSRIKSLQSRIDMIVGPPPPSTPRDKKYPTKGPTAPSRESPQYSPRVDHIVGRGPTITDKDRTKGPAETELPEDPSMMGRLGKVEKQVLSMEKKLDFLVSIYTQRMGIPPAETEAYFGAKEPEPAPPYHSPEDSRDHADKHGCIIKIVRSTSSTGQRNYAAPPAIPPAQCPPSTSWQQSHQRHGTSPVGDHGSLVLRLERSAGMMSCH
# Protocol: as §1, §2, §3
# [3] = test system: SSS-stimulated trigeminal activity; conditions: cited from earlier work
smiles,measurement,setting,value
"O=C1Nc2cc(C(F)(F)F)ccc2C1(F)c1cc(Cl)ccc1OCC(F)(F)F (single isomer, unassigned; (+)) [Compound 1]","human KCNQ5-mediated outward currents, % of control",human KCNQ5 (hKCNQ5),157.4+/−6.0 % of control
same,number of spreading depressions produced by a single 10 min KCl application,[1],significant reduction
same,decrease in trigeminal field potentials from control amplitude,"[2]; rat, 50 mg/kg i.v. (highest dose)",86.7±1.67%
same,effect on SSS-stimulated trigeminal field response,"[2]; rat, doses 0.1, 1.0, 10.0, 30.0 and 50.0 mg/kg i.v., vs vehicle (p<0.01 in all cases; overall ANOVA p<0.001)",dose-dependent reduction; also recorded: significant reduction; also recorded: dose-dependent decrease
same,increase of KCNQ2 current over the KCNQ2 current in controls,murine KCNQ2 (mKCNQ2),> 150%
"O=C(NCc1ccc(C(F)(F)F)cc1)c1cnc(N2CCCC2)nc1C(F)(F)F [Compound 2, 2-(Pyrrolidin-1-yl)-4-(trifluoromethyl)-N-[[4-(trifluoromethyl)phenyl]methyl]pyrimidine-5-carboxamide]",effect on SSS stimulation evoked trigeminal field potential amplitude,"[2]; urethane anesthetized rats, 1 mg/kg i.v.",statistically significant (p=0.005) decrease
CN1C[C@H](C(=O)N[C@]2(C)O[C@@]3(O)[C@@H]4CCCN4C(=O)[C@H](Cc4ccccc4)N3C2=O)C[C@@H]2c3cccc4[nH]cc(c34)C[C@H]21 [dihydroergotamine],physiological measures of SSS-stimulated trigeminal activity,[3]; literature reports,decrease
CNS(=O)(=O)CCc1ccc2[nH]cc(C3CCN(C)CC3)c2c1 [naratriptan],physiological measures of SSS-stimulated trigeminal activity,[3]; literature reports,decrease
CN(C)CCc1c[nH]c2ccc(Cn3cncn3)cc12 [rizatriptan],physiological measures of SSS-stimulated trigeminal activity,[3]; literature reports,decrease
CNS(=O)(=O)Cc1ccc2[nH]cc(CCN(C)C)c2c1 [sumatriptan],physiological measures of SSS-stimulated trigeminal activity,"[3]; following blood-brain-barrier disruption, literature report",decrease
CN(C)CCc1c[nH]c2ccc(C[C@H]3COC(=O)N3)cc12 [zolmitriptan],physiological measures of SSS-stimulated trigeminal activity,[3]; literature reports,decrease
